How the values were obtained:
[1] = biological target: T1, 5-lipoxygenase (Rattus norvegicus, UniProt P12527); experiment: 5-lipoxygenase inhibition in vitro, RBL-1 cell supernatant as enzyme source; format: biochemical; conditions: 10,000 xg supernatant of homogenized rat basophilic leukemia (RBL-1) cells, pH 7.0 phosphate buffer, 14C-arachidonic acid, 37°, two minutes
T1 construct: endogenous in cells; host or cells: RBL-1 (rat basophilic leukemia) cells, 10,000 xg supernatant of the homogenate
T1 sequence (P12527 1-673): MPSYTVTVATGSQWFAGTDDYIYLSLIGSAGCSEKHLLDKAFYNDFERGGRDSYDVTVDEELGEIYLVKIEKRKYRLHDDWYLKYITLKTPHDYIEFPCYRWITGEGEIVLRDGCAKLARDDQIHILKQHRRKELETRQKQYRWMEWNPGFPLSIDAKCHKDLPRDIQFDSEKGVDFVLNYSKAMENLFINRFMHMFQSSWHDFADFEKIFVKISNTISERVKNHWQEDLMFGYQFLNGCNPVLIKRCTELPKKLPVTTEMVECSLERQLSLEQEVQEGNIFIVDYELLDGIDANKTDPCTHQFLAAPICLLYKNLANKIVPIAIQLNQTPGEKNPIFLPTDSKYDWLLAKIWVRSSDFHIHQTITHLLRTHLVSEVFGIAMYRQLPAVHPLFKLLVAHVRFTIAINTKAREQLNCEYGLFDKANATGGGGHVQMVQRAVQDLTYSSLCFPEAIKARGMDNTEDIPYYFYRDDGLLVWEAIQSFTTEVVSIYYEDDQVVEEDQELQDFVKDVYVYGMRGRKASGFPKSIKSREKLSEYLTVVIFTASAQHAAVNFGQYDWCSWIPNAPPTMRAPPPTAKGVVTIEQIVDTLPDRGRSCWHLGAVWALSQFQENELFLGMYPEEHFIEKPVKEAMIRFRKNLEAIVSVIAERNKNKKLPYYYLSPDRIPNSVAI
Experimental: The test method is a modification of the procedure developed by Jakschik et al. (Prostaglandins (1978) 16. 733; Biochem. Biophys. Res. Commun. (1980) 95. 103; Biochem. Biophys, Res. Commun. (1981) 102 624).
The 10,000 xg supernatant from homogenized RBL-1 cells was incubated with test compound in a pH 7.0 phosphate buffer for about five minutes. ^14 C-arachidonic acid was added to initiate the reaction, which was allowed to continue at 37° for two minutes. The reaction was stopped by freezing in a dry ice/ethanol slurry and the 5-lipoxygenase products were separated from the substrate on silica gel columns. The amount of individual lipoxygenase products produced was determined and the percent inhibition calculated.

[2] = system: arachidonic acid-induced ear edema; experiment: arachidonic acid-induced ear edema in mice; format: in vivo; conditions: Mus musculus, 1 h; 100 μg/ear topical in acetone, CF1 mice, 1 mg arachidonic acid, one hour after challenge; >30% significant, 50% and above good to excellent
Experimental: This assay indicates a specific use in the treatment of skin diseases such as psoriasis. This assay also implies a reduction in leukotrienes caused by the compounds of the invention and indicates the use of these compounds in other diseases where the production of leukotrienes is involved in the pathological process. The assay is a modification of the procedure described by Young et al. (J. Invest. Dermatol. (1983) 80. 48).
Arachidonic acid (1 mg) was applied as an acetone solution to the inner surface of the pinna of CF1 mice. Test compound dissolved in acetone was applied to the ear just prior to the arachidonic acid challenge. One hour after challenge, 6 mm disks were removed from the ear with a biopsy punch and the weight determined. The results were determined as a percent inhibition of the swelling which occurred in the absence of the test compound.
Significant inhibitory activity is considered to be greater than 30% inhibition. 50% and above is considered to be good to excellent activity.

Structure (SMILES) | IC50 [1] | inhibition in vivo at 100 µg/ear [2]
CC(=O)Oc1c(Cc2ccccc2)ccc2ccccc12 [Example 1, 1-acetoxy-2-phenylmethylnaphthalene] | 140 nM | 66%
CCOC(=O)Oc1c(Cc2ccccc2)ccc2ccccc12 [Example 2, 1-ethoxycarbonyloxy-2-phenylmethyl naphthalene] | 1200 nM | 50%
O=C(O)CCC(=O)Oc1c(Cc2ccccc2)ccc2ccccc12 [Example 3, 1-(3-carboxvpropionvloxv)-2-phenylmethvlnaphthalene] | 530 nM | 
CN(C)CCCC(=O)Oc1c(Cc2ccccc2)ccc2ccccc12 [Example 4, 1-(4-demethylamine-butyryloxy)-2-phenylmethvlnaohthalene hvdrochloride] | 520 nM | 44%
CC(=O)Oc1c(Cc2ccccc2F)ccc2ccccc12 [Example 7] |  | 72%
CC(=O)Oc1c(Cc2cccc(F)c2)ccc2ccccc12 [Example 8] | 62 nM | 
COc1ccc(Cc2ccc3ccccc3c2OC(C)=O)cc1 [Example 10] | 90 nM | 53%
COc1ccc(Cc2ccc3ccccc3c2OC(C)=O)cc1OC [Example 11] | 580 nM | 
CC(=O)Oc1ccc(Cc2ccc3ccccc3c2OC(C)=O)cc1OC(C)=O [Example 12, 1-acetoxy-2-(3,4-diaacetoxyphenylmethyl)naphthalene] | 1600 nM | 35%
CC(=O)Oc1c(Cc2ccc3c(c2)OCO3)ccc2ccccc12 [Example 14] | 190 nM | 
CC(=O)Oc1c(Cc2ccc(N(C)C)cc2)ccc2ccccc12 [Example 15, 1-acetoxy-2-(4-dimethylaminophenylmethyl)naphthalene] | 810 nM | 49%
CC(=O)Oc1c(Cc2cccs2)ccc2ccccc12 [Example 17] | 70 nM | 52%
